Type in all cases: in vivo
Test [1] relates to Setaria viridis (L.) Beauv. (Se). Nature of the test: Test for herbicidal effect by upland field soil treatment (Test Example 2), Se. As to conditions: application amount (active ingredient) 100 g/10 a, examined at the 21st day from the treatment, index per Table 40. The method, boiled down:
(§1)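 Echinochloa crus-galli and Setaria viridis were sown in upland field soil and covered, then the soil surface was sprayed with water-diluted wettable powder at 100 g active ingredient per 10 ares (100 liters per 10 ares). Plants were grown in a greenhouse and scored on a standard scale on day 21.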

Test [2] relates to Echinochloa crus-galli (L.) Beauv. var. crusgall (Ec). Briefly: Test for herbicidal effect by upland field soil treatment (Test Example 2), Ec. As to conditions: application amount (active ingredient) 100 g/10 a, examined at the 21st day from the treatment, index per Table 40. In a few lines: as §1
For test [3], the system named is Echinochloa crus-galli (L.) Beauv. var. crusgalli (Ec). Nature of the test: Test for herbicidal effect by upland foliage treatment (Test Example 3). As to conditions: 100 g/10 a active ingredient, examined at 14th day. As for the experimental part: Test For Herbicidal Effect By Upland Foliage Treatment
An upland field soil was filed in a plastic pot of 80 cm^2. Seeds of Echinochloa crus-galli (L.) Beauv. var. crusgalli (Ec) were sowed. Breeding was made in a greenhouse for 2 weeks. Wettable powders produced in accordance with the Formulation 1 were diluted with water and sprayed on the whole foliage of plants from above the plants using a small sprayer in an amount of 100 liters per 10 ares so that the amount of each active ingredient became 100 g per 10 ares. Then, breeding was made in the greenhouse, and the herbicidal effect of each wettable powder was examined at the 14th day from the treatment in accordance with the standard shown in Table 40.

The test system of test [4] is Echinochloa oryzicola Vasing. (Eo). Briefly: Test for herbicidal effect by paddy field soil treatment (Test Example 1). As to conditions: application amount (active ingredient) 100 g/10 a, examined at the 21st day from the treatment, index per Table 40. In a few lines:
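Eo seeds sown in puddled paddy soil under 3 cm water; next day a water-diluted wettable powder was dropped onto the water surface at 100 g active ingredient per 10 ares. Herbicidal effect scored on a standard scale 21 days after treatment, greenhouse-grown.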

With `CC1(C)CC(S(=O)(=O)Cc2ccccc2C#N)=NO1` [Compound 1-139], the “Herbicidal effect to Se” value in test [1] is recorded as 5 (A herbicidal effect or phytotoxicity of 90% or more). The “Herbicidal effect to Ec” value in test [2] was 5 (A herbicidal effect or phytotoxicity of 90% or more); in test [3] it was 4 (A herbicidal effect or phytotoxicity of 70% to less than 90%). For the same molecule, the “Herbicidal effect to Eo” value in test [4] is listed as 5 (A herbicidal effect or phytotoxicity of 90% or more).
`CC1(C)CC(S(=O)(=O)Cc2ccccc2[N+](=O)[O-])=NO1` [Compound 1-142]: the “Herbicidal effect to Se” value in test [1] was 5 (A herbicidal effect or phytotoxicity of 90% or more). The entries for the “Herbicidal effect to Ec” value in test [2] and in test [3] were 5 (A herbicidal effect or phytotoxicity of 90% or more) and 4 (A herbicidal effect or phytotoxicity of 70% to less than 90%), respectively. In test [4], the “Herbicidal effect to Eo” value is 5 (A herbicidal effect or phytotoxicity of 90% or more).
As for `CC1(C)CC(S(=O)(=O)Cc2cccc(C(F)(F)F)c2)=NO1` [Compound 1-158], in test [1], the “Herbicidal effect to Se” value is 5 (A herbicidal effect or phytotoxicity of 90% or more). For the same molecule, the “Herbicidal effect to Ec” value in test [2] and in test [3] was 5 (A herbicidal effect or phytotoxicity of 90% or more) throughout. In addition, in test [4], the “Herbicidal effect to Eo” value was 5 (A herbicidal effect or phytotoxicity of 90% or more).
`COCc1ccccc1CS(=O)(=O)C1=NOC(C)(C)C1` [Compound 1-160]: the “Herbicidal effect to Se” value in test [1] is listed as 5 (A herbicidal effect or phytotoxicity of 90% or more). In addition, the “Herbicidal effect to Ec” value in test [2] and in test [3] was 5 (A herbicidal effect or phytotoxicity of 90% or more) throughout. In test [4], the “Herbicidal effect to Eo” value was 5 (A herbicidal effect or phytotoxicity of 90% or more).
Consider `CC1(C)CC(S(=O)(=O)Cc2cccc(Cl)c2F)=NO1` [Compound 1-184], for which the “Herbicidal effect to Se” value in test [1] is given as 4 (A herbicidal effect or phytotoxicity of 70% to less than 90%). Also, the “Herbicidal effect to Ec” value in test [2] is given as 5 (A herbicidal effect or phytotoxicity of 90% or more); in test [3], 4 (A herbicidal effect or phytotoxicity of 70% to less than 90%). Further, the “Herbicidal effect to Eo” value in test [4] was 5 (A herbicidal effect or phytotoxicity of 90% or more).
On to `Cc1cccc(C)c1CS(=O)(=O)C1=NOC(C)(C)C1` [Compound 1-185], for which the “Herbicidal effect to Se” value in test [1] was 5 (A herbicidal effect or phytotoxicity of 90% or more). Moreover, the “Herbicidal effect to Ec” value in test [2] and in test [3] was 5 (A herbicidal effect or phytotoxicity of 90% or more) in each case. Further, the “Herbicidal effect to Eo” value in test [4] is 5 (A herbicidal effect or phytotoxicity of 90% or more).
Take `CCOc1c(C)cccc1CS(=O)(=O)C1=NOC(C)(C)C1` [Compound 1-186]: the “Herbicidal effect to Se” value in test [1] is 5 (A herbicidal effect or phytotoxicity of 90% or more). Moreover, the “Herbicidal effect to Ec” value in test [2] and in test [3] was 5 (A herbicidal effect or phytotoxicity of 90% or more) each time. Moreover, the “Herbicidal effect to Eo” value in test [4] is 5 (A herbicidal effect or phytotoxicity of 90% or more).
Turning to `Cc1cccc(CS(=O)(=O)C2=NOC(C)(C)C2)c1F` [Compound 1-187], in test [1], the “Herbicidal effect to Se” value is on record as 5 (A herbicidal effect or phytotoxicity of 90% or more). For the same molecule, the “Herbicidal effect to Ec” value in test [2] and in test [3] was 5 (A herbicidal effect or phytotoxicity of 90% or more) in each case. Besides, the “Herbicidal effect to Eo” value in test [4] was 5 (A herbicidal effect or phytotoxicity of 90% or more).
On to `CCC1(C)CC(S(=O)(=O)Cc2ccccc2)=NO1` (stereo not shown) [Compound 1-188], for which the “Herbicidal effect to Se” value in test [1] is given as 5 (A herbicidal effect or phytotoxicity of 90% or more). In addition, the “Herbicidal effect to Ec” value in test [2] is reported as 5 (A herbicidal effect or phytotoxicity of 90% or more); in test [3], 4 (A herbicidal effect or phytotoxicity of 70% to less than 90%). The “Herbicidal effect to Eo” value in test [4] is 5 (A herbicidal effect or phytotoxicity of 90% or more).
As to `CCC1(C)CC(S(=O)(=O)Cc2ccccc2Cl)=NO1` (stereo not shown) [Compound 1-192], the “Herbicidal effect to Se” value in test [1] is reported as 5 (A herbicidal effect or phytotoxicity of 90% or more). Besides, the figures for the “Herbicidal effect to Ec” value in test [2] and in test [3] were 5 (A herbicidal effect or phytotoxicity of 90% or more) and 4 (A herbicidal effect or phytotoxicity of 70% to less than 90%), respectively. Also, the “Herbicidal effect to Eo” value in test [4] was 5 (A herbicidal effect or phytotoxicity of 90% or more).
`CCC1(C)CC(S(=O)(=O)Cc2cccc(Cl)c2)=NO1` (stereo not shown) [Compound 1-193]: the “Herbicidal effect to Se” value in test [1] is recorded as 4 (A herbicidal effect or phytotoxicity of 70% to less than 90%). The “Herbicidal effect to Ec” value in test [2] and in test [3] was 5 (A herbicidal effect or phytotoxicity of 90% or more) throughout. In addition, in test [4], the “Herbicidal effect to Eo” value is on record as 5 (A herbicidal effect or phytotoxicity of 90% or more).
In the case of `CCC1(C)CC([S+]([O-])Cc2c(F)cccc2F)=NO1` (stereo not shown) [Compound 1-199, 5-ethyl-3-(2,6-difluorobenzylsulfinyl)-5-methyl-2-isoxazoline], the “Herbicidal effect to Se” value in test [1] was 5 (A herbicidal effect or phytotoxicity of 90% or more). The figures for the “Herbicidal effect to Ec” value in test [2] and in test [3] were 5 (A herbicidal effect or phytotoxicity of 90% or more) and 4 (A herbicidal effect or phytotoxicity of 70% to less than 90%), respectively. The “Herbicidal effect to Eo” value in test [4] is 5 (A herbicidal effect or phytotoxicity of 90% or more).
With `CCC1(C)CC(S(=O)(=O)Cc2c(F)cccc2F)=NO1` (stereo not shown) [Compound 1-200, 5-ethyl-3-(2,6-difluorobenzylsulfonyl)-5-methyl-2-isoxazoline], in test [1], the “Herbicidal effect to Se” value is given as 5 (A herbicidal effect or phytotoxicity of 90% or more). The entries for the “Herbicidal effect to Ec” value in test [2] and in test [3] were 5 (A herbicidal effect or phytotoxicity of 90% or more) and 4 (A herbicidal effect or phytotoxicity of 70% to less than 90%), respectively. Further, the “Herbicidal effect to Eo” value in test [4] is listed as 5 (A herbicidal effect or phytotoxicity of 90% or more).
`CCC1(C)CC(S(=O)(=O)Cc2ccccc2C)=NO1` (stereo not shown) [Compound 1-201]: the “Herbicidal effect to Se” value in test [1] was 5 (A herbicidal effect or phytotoxicity of 90% or more). Besides, the “Herbicidal effect to Ec” value in test [2] and in test [3] was 5 (A herbicidal effect or phytotoxicity of 90% or more) throughout. Moreover, in test [4], the “Herbicidal effect to Eo” value was 5 (A herbicidal effect or phytotoxicity of 90% or more).
As to `CCC1(C)CC(S(=O)(=O)Cc2cccc(C)c2)=NO1` (stereo not shown) [Compound 1-202], the “Herbicidal effect to Se” value in test [1] is given as 4 (A herbicidal effect or phytotoxicity of 70% to less than 90%). The “Herbicidal effect to Ec” value in test [2] is recorded as 5 (A herbicidal effect or phytotoxicity of 90% or more); in test [3] it was 4 (A herbicidal effect or phytotoxicity of 70% to less than 90%). Moreover, the “Herbicidal effect to Eo” value in test [4] was 5 (A herbicidal effect or phytotoxicity of 90% or more).
Turning to `CCC1(C)CC(S(=O)(=O)Cc2ccccc2C(F)(F)F)=NO1` (stereo not shown) [Compound 1-336], in test [1], the “Herbicidal effect to Se” value is given as 5 (A herbicidal effect or phytotoxicity of 90% or more). The “Herbicidal effect to Ec” value in test [2] and in test [3] was 5 (A herbicidal effect or phytotoxicity of 90% or more) in each case. Further, the “Herbicidal effect to Eo” value in test [4] was 5 (A herbicidal effect or phytotoxicity of 90% or more).

These data come from patent US6841519B1, “Isoxazoline derivatives and herbicides containing the same as the active ingredient” (Kumiai Chemical Industry Co., Ltd., priority 1999, dated 2005).
